Assay results: ChEMBL document CHEMBL5241095, “Developments of CRBN-based PROTACs as potential therapeutic agents” (Eur J Med Chem, 2021)

Target: Protein cereblon/Peptidyl-prolyl cis-trans isomerase FKBP1A (Homo sapiens, UniProt P62942+Q96SW2)
Experiment: Protac activity at CRBN/FKBP12 in human Jurkat cells
Type: cell-based

Chain of Protein cereblon/Peptidyl-prolyl cis-trans isomerase FKBP1A (P62942 whole entry): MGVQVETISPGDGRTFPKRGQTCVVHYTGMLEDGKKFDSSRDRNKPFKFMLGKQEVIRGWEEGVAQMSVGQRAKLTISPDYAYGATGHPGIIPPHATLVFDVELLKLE
Chain of Protein cereblon/Peptidyl-prolyl cis-trans isomerase FKBP1A (Q96SW2 whole entry): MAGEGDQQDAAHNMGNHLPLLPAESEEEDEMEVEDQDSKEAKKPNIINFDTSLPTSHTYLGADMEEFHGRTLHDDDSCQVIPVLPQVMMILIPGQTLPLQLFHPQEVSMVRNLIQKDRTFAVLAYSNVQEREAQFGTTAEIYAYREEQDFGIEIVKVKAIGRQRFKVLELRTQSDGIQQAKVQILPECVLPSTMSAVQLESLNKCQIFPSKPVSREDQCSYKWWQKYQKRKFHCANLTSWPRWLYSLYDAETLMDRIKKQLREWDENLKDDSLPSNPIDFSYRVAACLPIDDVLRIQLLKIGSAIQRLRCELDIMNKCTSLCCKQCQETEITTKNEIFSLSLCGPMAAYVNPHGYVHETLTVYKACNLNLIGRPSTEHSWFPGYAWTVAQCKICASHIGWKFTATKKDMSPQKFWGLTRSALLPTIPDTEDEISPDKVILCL

**Q.** How did the DC50 turn out when `COC1C(=O)[C@H](C)C[C@H](C)/C=C/C=C/C=C(\C)[C@@H](OC)C[C@@H]2CC[C@@H](C)[C@@](O)(O2)C(=O)C(=O)N2CCCC[C@H]2C(=O)O[C@H]([C@H](C)C[C@@H]2CC[C@@H](OCCOCc3cn(CCOCCOCCNc4cccc5c4C(=O)N(C4CCC(=O)NC4=O)C5=O)nn3)[C@H](OC)C2)CC(=O)[C@H](C)/C=C(\C)[C@H]1O` (stereo partly specified) was run?
**A.** 0.3 nM
